For test [1], the target named is Recombinant human Cbl-b (aa 36-427) (Homo sapiens, UniProt Q13191). Description: Cbl-b Biochemical Assay (TR-FRET). As to conditions: read-out: TR-FRET hCbl-b IC50. On the technique in general: Time-resolved FRET reads energy transfer from a long-lived donor to a nearby acceptor.
In test [2] the test system is Jurkat (clone E6-1) cells with NFAT luciferase reporter. Description: Jurkat reporter assay (NFAT Luciferase). Type of test: cell-based. To be noted: Homo sapiens; Jurkat NFAT luciferase reporter cells, anti-CD3 stimulation, 6 hr; read-out: Jurkat NFAT EC50. A general note: In a reporter assay the amount or activity of a reporter protein is the signal.
Test [3] has as its target T1, Recombinant human c-Cbl (aa 47-435) (Homo sapiens, UniProt P22681).
T1 sequence (P22681 47-435): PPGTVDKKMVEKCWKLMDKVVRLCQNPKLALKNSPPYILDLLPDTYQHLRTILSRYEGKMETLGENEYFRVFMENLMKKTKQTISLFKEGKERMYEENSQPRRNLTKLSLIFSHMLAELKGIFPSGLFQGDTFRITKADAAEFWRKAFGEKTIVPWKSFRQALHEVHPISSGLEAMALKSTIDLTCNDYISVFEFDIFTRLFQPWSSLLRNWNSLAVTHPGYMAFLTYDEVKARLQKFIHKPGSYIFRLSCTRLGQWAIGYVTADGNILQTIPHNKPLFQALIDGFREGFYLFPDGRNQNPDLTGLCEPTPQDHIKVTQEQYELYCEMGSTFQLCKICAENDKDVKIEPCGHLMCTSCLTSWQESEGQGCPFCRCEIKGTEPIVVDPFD
Put plainly: c-Cbl Biochemical Assay (TR-FRET). As to conditions: hc-Cbl Biochemical Assay (TR-FRET); read-out: TR-FRET hcCbl IC50.

Where only a bound is given, the exact number is not on record here.

Sequence of Recombinant human Cbl-b (aa 36-427) (Q13191 36-427): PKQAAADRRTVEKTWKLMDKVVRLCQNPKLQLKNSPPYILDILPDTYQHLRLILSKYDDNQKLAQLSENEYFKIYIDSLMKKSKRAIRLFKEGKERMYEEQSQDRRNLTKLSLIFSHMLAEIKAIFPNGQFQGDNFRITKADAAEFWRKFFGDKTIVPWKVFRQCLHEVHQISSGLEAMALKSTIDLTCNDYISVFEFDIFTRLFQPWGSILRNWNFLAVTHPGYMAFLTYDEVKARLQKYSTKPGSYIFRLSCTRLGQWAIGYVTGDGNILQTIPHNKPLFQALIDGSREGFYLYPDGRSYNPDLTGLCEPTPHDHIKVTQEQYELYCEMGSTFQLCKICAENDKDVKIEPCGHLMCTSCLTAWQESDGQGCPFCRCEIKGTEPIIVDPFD

In the case of `CO[C@@H](C)CNCc1cc(F)c2oc(-c3cc(-c4ccc(F)cc4-c4nncn4C)cc(C4CC4)n3)nc2c1` [AFO-2, [(2-{6-Cyclopropyl-4-[4-fluoro-2-(4-methyl-1,2,4-triazol-3-yl)phenyl]pyridin-2-yl}-7-fluoro-1,3-benzoxazol-5-yl)methyl][(2S)-2-methoxypropyl]amine], the IC50 in test [1] and in test [3] was less than 200 nM each time. For the same compound, in test [2], the EC50 (commonly the concentration that produces a half-maximal response) is 200 to 1000 nM.
Take `Cn1cnnc1-c1cc(F)ccc1-c1cc(-c2nc3cc(CN4CC(F)C4)cc(F)c3o2)nc(C2CC2)c1` [AFP-3, 2-{6-Cyclopropyl-4-[4-fluoro-2-(4-methyl-1,2,4-triazol-3-yl)phenyl]pyridin-2-yl}-7-fluoro-5-[(3-fluoroazetidin-1-yl)methyl]-1,3-benzoxazole]: the results for the IC50 in test [1] and in test [3] were 1000 to 10000 nM and 200 to 1000 nM, respectively. Moreover, the EC50 in test [2] fell in the range of 1000 to 10000 nM.
Regarding `COC1(CN[C@@H](C)c2cc(F)c3oc(-c4cc(-c5ccc(F)cc5-c5nncn5C)cc(C5CC5)n4)nc3c2)CCC1` [AFS-2, [(1S)-1-(2-{6-Cyclopropyl-4-[4-fluoro-2-(4-methyl-1,2,4-triazol-3-yl)phenyl]pyridin-2-yl}-7-fluoro-1,3-benzoxazol-5-yl)ethyl][(1-methoxycyclobutyl)methyl]amine], the IC50 in test [1] and in test [3] was less than 200 nM in each case. In addition, in test [2], the EC50 lay within 200 to 1000 nM.
Take `COC1(CN[C@H](C)c2cc(F)c3oc(-c4cc(-c5ccc(F)cc5-c5nncn5C)cc(C5CC5)n4)nc3c2)CCC1` [AFT-1, [(1R)-1-(2-{6-Cyclopropyl-4-[4-fluoro-2-(4-methyl-1,2,4-triazol-3-yl)phenyl]pyridin-2-yl}-7-fluoro-1,3-benzoxazol-5-yl)ethyl][(1-methoxycyclobutyl)methyl]amine]: the IC50 (commonly the concentration at which inhibition is half-maximal) in test [1] was less than 200 nM; in test [3] it was 200 to 1000 nM. The EC50 in test [2] lay within 1000 to 10000 nM.
With `COC[C@H](C)NCc1cc(F)c2oc(-c3cc(-c4ccc(F)cc4-c4nncn4C)cc(C4CC4)n3)nc2c1` [AFU-1, [(2-{6-Cyclopropyl-4-[4-fluoro-2-(4-methyl-1,2,4-triazol-3-yl)phenyl]pyridin-2-yl}-7-fluoro-1,3-benzoxazol-5-yl)methyl][(2S)-1-methoxypropan-2-yl]amine], the IC50 in test [1] and in test [3] was less than 200 nM each time. For the same compound, the EC50 in test [2] is less than 200 nM.
On to `COC[C@@H](C)NCc1cc(F)c2oc(-c3cc(-c4ccc(F)cc4-c4nncn4C)cc(C4CC4)n3)nc2c1` [AFV-1, [(2-{6-Cyclopropyl-4-[4-fluoro-2-(4-methyl-1,2,4-triazol-3-yl)phenyl]pyridin-2-yl}-7-fluoro-1,3-benzoxazol-5-yl)methyl][(2R)-1-methoxypropan-2-yl]amine], for which the IC50 in test [1] was less than 200 nM; in test [3] it was 200 to 1000 nM. Moreover, in test [2], the EC50 was 200 to 1000 nM.
For `COC(=O)c1cc2nc(-c3cc(-c4ccc(F)cc4-c4nncn4C)cc(C4CC4)n3)oc2c(F)c1F` [AFW-1, Methyl 2-{6-cyclopropyl-4-[4-fluoro-2-(4-methyl-1,2,4-triazol-3-yl)phenyl]pyridin-2-yl}-6,7-difluoro-1,3-benzoxazole-5-carboxylate], the IC50 in test [1] and in test [3] was 1000 to 10000 nM in each case. For the same compound, the concentration giving a half-maximal response (EC50) in test [2] is 1000 to 10000 nM.
Regarding `Cn1cnnc1-c1cc(F)ccc1-c1cc(-c2nc3cc(CO)c(F)c(F)c3o2)nc(C2CC2)c1` [AFX-1, (2-{6-cyclopropyl-4-[4-fluoro-2-(4-methyl-1,2,4-triazol-3-yl)phenyl]pyridin-2-yl}-6,7-difluoro-1,3-benzoxazol-5-yl)methanol], the IC50 in test [1] and in test [3] was 200 to 1000 nM throughout. Also, the EC50 in test [2] fell in the range of 200 to 1000 nM.
With `Cn1cnnc1-c1cc(F)ccc1-c1cc(-c2nc3cc(CN[C@@H]4CCC[C@@H]4O)c(F)c(F)c3o2)nc(C2CC2)c1` [AFY-2, (1S,2R)-2-{[(2-{6-Cyclopropyl-4-[4-fluoro-2-(4-methyl-1,2,4-triazol-3-yl)phenyl]pyridin-2-yl}-6,7-difluoro-1,3-benzoxazol-5-yl)methyl]amino}cyclopentan-1-ol], the IC50 in test [1] and in test [3] was less than 200 nM throughout. In addition, the EC50 in test [2] is less than 200 nM.
Take `CO[C@H](C)[C@@H](C)NCc1cc(C)c2oc(-c3cc(-c4ccc(F)cc4-c4nncn4C)cc(C4CC4)n3)nc2c1` [AFZ-2, [(2-{6-Cyclopropyl-4-[4-fluoro-2-(4-methyl-1,2,4-triazol-3-yl)phenyl]pyridin-2-yl}-7-methyl-1,3-benzoxazol-5-yl)methyl][(2R,3R)-3-methoxybutan-2-yl]amine]: the IC50 in test [1] and in test [3] was 200 to 1000 nM each time. Also, the EC50 in test [2] lay in the range of 200 to 1000 nM.
Turning to `Cn1cnnc1-c1cc(F)ccc1-c1cccc(-c2nc3cc(CN4CCC5(CC4)CC5)cc(C(F)(F)F)c3o2)c1` [AG-2, 5-((6-Azaspiro[2.5]octan-6-yl)methyl)-2-(4′-fluoro-2′-(4-methyl-4H-1,2,4-triazol-3-yl)-[1,1′-biphenyl]-3-yl)-7-(trifluoromethyl)benzo[d]oxazole], the values for the IC50 in test [1] and in test [3] were less than 200 nM and 1000 to 10000 nM, respectively. Moreover, in test [2], the EC50 is 1000 to 10000 nM.
For the compound `Cn1cnnc1-c1cc(F)ccc1-c1cc(-c2nc3cc(CNCC4(O)CCC4)c(F)c(F)c3o2)nc(C2CC2)c1` [AGA-1, 1-({[(2-{6-Cyclopropyl-4-[4-fluoro-2-(4-methyl-1,2,4-triazol-3-yl)phenyl]pyridin-2-yl}-6,7-difluoro-1,3-benzoxazol-5-yl)methyl]amino}methyl)cyclobutan-1-ol], the IC50 in test [1] and in test [3] was less than 200 nM throughout. Besides, in test [2], the EC50 was less than 200 nM.
In the case of `COCCNCc1cc2nc(-c3cc(-c4ccc(F)cc4-c4nncn4C)cc(C4CC4)n3)oc2c(F)c1F` [AGB-1, [(2-{6-Cyclopropyl-4-[4-fluoro-2-(4-methyl-1,2,4-triazol-3-yl)phenyl]pyridin-2-yl}-6,7-difluoro-1,3-benzoxazol-5-yl)methyl](2-methoxyethyl)amine], the IC50 in test [1] and in test [3] was less than 200 nM in each case. For the same compound, in test [2], the EC50 is less than 200 nM.
Turning to `CO[C@@H](C)[C@H](C)NCc1cc(C)c2oc(-c3cc(-c4ccc(F)cc4-c4nncn4C)cc(C4CC4)n3)nc2c1` [AGC-2, [(2-{6-Cyclopropyl-4-[4-fluoro-2-(4-methyl-1,2,4-triazol-3-yl)phenyl]pyridin-2-yl}-7-methyl-1,3-benzoxazol-5-yl)methyl][(2S,3S)-3-methoxybutan-2-yl]amine], the IC50 in test [1] and in test [3] was less than 200 nM in each case. In addition, the EC50 in test [2] is less than 200 nM.
`Cn1cnnc1-c1cc(F)ccc1-c1cc(-c2nc3cc(CNC(C)(C)C4CCC4)c(F)c(F)c3o2)nc(C2CC2)c1` [AGD-1, (2-Cyclobutylpropan-2-yl)[(2-{6-cyclopropyl-4-[4-fluoro-2-(4-methyl-1,2,4-triazol-3-yl)phenyl]pyridin-2-yl}-6,7-difluoro-1,3-benzoxazol-5-yl)methyl]amine]: the IC50 in test [1] is less than 200 nM; in test [3], 200 to 1000 nM. In addition, the concentration for a half-maximal effect (EC50) in test [2] is 1000 to 10000 nM.
As for `Cn1cnnc1-c1cc(F)ccc1-c1cc(-c2nc3cc(CNCC4CCC4)c(F)c(F)c3o2)nc(C2CC2)c1` [AGE-1, 1-Cyclobutyl-N-((2-(6-cyclopropyl-4-(4-fluoro-2-(4-methyl-4H-1,2,4-triazol-3-yl)phenyl)pyridin-2-yl)-6,7-difluorobenzo[d]oxazol-5-yl)methyl)methanamine], the IC50 in test [1] and in test [3] was less than 200 nM in each case. Also, the EC50 in test [2] was less than 200 nM.
On to `Cn1cnnc1-c1cc(F)ccc1-c1cc(-c2nc3cc(CNCC(C)(C)O)c(F)c(F)c3o2)nc(C2CC2)c1` [AGF-1, 1-{[(2-{6-Cyclopropyl-4-[4-fluoro-2-(4-methyl-1,2,4-triazol-3-yl)phenyl]pyridin-2-yl}-6,7-difluoro-1,3-benzoxazol-5-yl)methyl]amino}-2-methylpropan-2-ol], for which the IC50 in test [1] and in test [3] was less than 200 nM throughout. Moreover, in test [2], the EC50 was less than 200 nM.
Regarding `C[C@H]1CCCN(Cc2ccc3oc(-c4cc(-c5ccc(C#N)cc5-c5nncn5C)cc(C5CC5)n4)nc3c2)C1` [AGG-2, 4-[2-Cyclopropyl-6-(5-{[(3S)-3-methylpiperidin-1-yl]methyl}-1,3-benzoxazol-2-yl)pyridin-4-yl]-3-(4-methyl-1,2,4-triazol-3-yl)benzonitrile], the IC50 in test [1] was less than 200 nM; in test [3], 200 to 1000 nM. Also, the EC50 in test [2] lay in the range of 200 to 1000 nM.
On to `Cn1cnnc1-c1cc(C#N)ccc1-c1cc(-c2nc3cc(CN4C[C@@H]5C[C@H]4CO5)cc(F)c3o2)nc(C2CC2)c1` [AGH-4, 4-(2-Cyclopropyl-6-{7-fluoro-5-[(1S,4S)-2-oxa-5-azabicyclo[2.2.1]heptan-5-ylmethyl]-1,3-benzoxazol-2-yl}pyridin-4-yl)-3-(4-methyl-1,2,4-triazol-3-yl)benzonitrile], for which the IC50 in test [1] and in test [3] was 200 to 1000 nM each time. Further, the EC50 in test [2] lay within 1000 to 10000 nM.
`C[C@H]1CCCN(Cc2cc(F)c3oc(-c4cc(-c5ccc(C#N)cc5-c5nncn5C)cc(C5CC5)n4)nc3c2)C1` [AGI-1, 4-[2-Cyclopropyl-6-(7-fluoro-5-{[(3S)-3-methylpiperidin-1-yl]methyl}-1,3-benzoxazol-2-yl)pyridin-4-yl]-3-(4-methyl-1,2,4-triazol-3-yl)benzonitrile]: the IC50 in test [1] and in test [3] was less than 200 nM each time. Also, the EC50 in test [2] is less than 200 nM.

The values above are taken from US20250163038A1, “CBL-B MODULATORS AND USES THEREOF” (Nimbus Clio, Inc., priority 2021, published 2025).
